Source: patent US20160002204A1 (Board of Regents, The University of Texas System, priority 2014, published 2016)

Columns and labels:
[1] = molecular target: T1, GLS1 (purified recombinant human GAC) (Homo sapiens, UniProt O94925); assay: GLS1 enzymatic activity assay (dual-coupled, Amplex UltraRed/resorufin); type: biochemical
T1 sequence (O94925 55-598 isoform O94925-3 limits assumed): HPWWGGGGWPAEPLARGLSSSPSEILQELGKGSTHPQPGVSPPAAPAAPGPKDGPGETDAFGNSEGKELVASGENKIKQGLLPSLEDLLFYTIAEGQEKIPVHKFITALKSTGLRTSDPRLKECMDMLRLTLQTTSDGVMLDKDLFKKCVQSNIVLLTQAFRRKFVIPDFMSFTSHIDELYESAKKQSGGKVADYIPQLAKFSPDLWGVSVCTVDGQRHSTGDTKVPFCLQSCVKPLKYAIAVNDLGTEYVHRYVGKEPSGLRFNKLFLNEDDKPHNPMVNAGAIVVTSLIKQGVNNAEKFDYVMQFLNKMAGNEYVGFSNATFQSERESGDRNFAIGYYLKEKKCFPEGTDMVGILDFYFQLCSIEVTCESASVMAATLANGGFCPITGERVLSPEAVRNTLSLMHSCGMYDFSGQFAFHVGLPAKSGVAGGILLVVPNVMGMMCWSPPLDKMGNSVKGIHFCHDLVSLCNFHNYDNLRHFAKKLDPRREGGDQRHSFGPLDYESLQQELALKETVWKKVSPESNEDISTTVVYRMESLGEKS
Procedure, shortened: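 GAC activity measured by coupling glutamate to glutamate oxidase and HRP, generating resorufin from Amplex UltraRed. Enzyme (2 nM) preincubated with 50 mM potassium phosphate 10 min at room temperature, then inhibitor 10 min; 1 mM glutamine substrate, 1% DMSO. Fluorescence 530/590 nm, kinetic or 20-min endpoint; IC50 from four-parameter logistic fit.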

A549 cells = assay: A549 proliferation (viability) assay, Cell Titer Fluor, 72 hours; type: cell-based; conditions: Homo sapiens
Procedure, shortened: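 A549 cells in RPMI 1640 with 10% dialyzed FBS were seeded at 1000 cells/well, grown 24 h, then exposed to compound (0.5% DMSO final) for 72 h at 37 °C, 5% CO2. Viability was read by Cell Titer Fluor fluorescence; EC50 from four-parameter logistic fit.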

Row | SMILES | IC50 [1] [nM] | EC50 (A549 cells) [nM]
1 | CC(C(=O)Nc1ccn(CCC(F)Cn2cc(C(=O)NCc3cc(C(F)(F)F)ccn3)nn2)c(=O)c1F)N1CCCCC1 (centres unmarked) [Example 345, 1-(2-fluoro-4-{3-fluoro-2-oxo-4-[2-(piperidin-1-yl)propanamido]-1,2-dihydropyridin-1-yl}butyl)-N-{[4-(trifluoromethyl)pyridin-2-yl]methyl}-1H-1,2,3-triazole-4-carboxamide] | 100 to 500 | < 100
2 | CC(C)(C)OC(=O)N1CCC(CC(=O)Nc2ccn(CCC(F)Cn3cc(C(=O)NCc4cccc(OC(F)(F)F)c4)nn3)c(=O)c2)CC1 (centres unmarked) [Example 219, tert-butyl 4-{[(1-{3-fluoro-4-[4-({[3-(trifluoromethoxy)phenyl]methyl}carbamoyl)-1H-1,2,3-triazol-1-yl]butyl}-2-oxo-1,2-dihydropyridin-4-yl)carbamoyl]methyl}piperidine-1-carboxylate] | < 100 | < 100
3 | O=C(Cc1cccc(OC(F)(F)F)c1)Nc1ccn(CCCCc2nnc(NC(=O)[C@@H](O)c3ccccc3)s2)c(=O)n1 [Example 80, (2S)-2-hydroxy-N-{5-[4-(2-oxo-4-{2-[3-(trifluoro-methoxy)phenyl]acetamido}-1,2-dihydropyrimidin-1-yl)butyl]-1,3,4-thiadiazol-2-yl}-2-phenylacetamide] | < 100 | 100 to 500
4 | O=C(Nc1ccn(CCCCn2cc(C(=O)NCc3cccc(OC(F)(F)F)c3)nn2)c(=O)c1)OCc1ccccc1 [Example 42, benzyl N-(2-oxo-1-{4-[4-({[3-(trifluoromethoxy)phenyl]methyl}carbamoyl)-1H-1,2,3-triazol-1-yl]butyl}-1,2-dihydropyridin-4-yl)carbamate] | < 100 | 100 to 500
5 | O=C(NCc1cc(C(F)(F)F)ccn1)c1cn(CC(F)CCn2ccc(COc3ccccc3F)cc2=O)nn1 (centres unmarked) [Example 487, 1-{2-fluoro-4-[4-(2-fluorophenoxymethyl)-2-oxo-1,2-dihydropyridin-1-yl]butyl}-N-{[4-(trifluoromethyl)pyridin-2-yl]methyl}-1H-1,2,3-triazole-4-carboxamide] | 100 to 500 | 100 to 500
6 | O=C(Cc1cccnc1)Nc1ccn(CCC(F)Cn2cc(C(=O)NCc3cccc(OC(F)(F)F)c3)nn2)c(=O)c1 (centres unmarked) [Example 246, 1-(2-fluoro-4-{2-oxo-4-[2-(pyridin-3-yl)acetamido]-1,2-dihydropyridin-1-yl}butyl)-N-{[3-(trifluoromethoxy)phenyl]methyl}-1H-1,2,3-triazole-4-carboxamide] | < 100 | 500 to 5000
7 | CS(=O)(=O)N1CCN(CC(=O)Nc2ccn(CCC(F)Cn3cc(C(=O)NCc4cccc(OC(F)(F)F)c4)nn3)c(=O)c2)CC1 (centres unmarked) [Example 279, 1-(2-fluoro-4-{4-[2-(4-methanesulfonylpiperazin-1-yl)acetamido]-2-oxo-1,2-dihydropyridin-1-yl}butyl)-N-{[3-(trifluoromethoxy)phenyl]methyl}-1H-1,2,3-triazole-4-carboxamide] | < 100 | > 5000
8 | O=C(Cc1ccccc1)Nc1nnc(CCCCn2cc3cc(Cc4ccccc4)[nH]c3nc2=O)s1 [Example 29, N-(5-(4-(6-benzyl-2-oxo-2,7-dihydro-3H-pyrrolo[2,3-d]pyrimidin-3-yl)butyl)-1,3,4-thiadiazol-2-yl)-7-phenylacetamide] | < 100 | > 5000
9 | O=C(CC1CCCC1)Nc1ccn(CCC(F)Cn2cc(C(=O)NCc3cccc(OC(F)(F)F)c3)nn2)c(=O)c1F (centres unmarked) [Example 355, 1-{4-[4-(2-cyclopentylacetamido)-3-fluoro-2-oxo-1,2-dihydropyridin-1-yl]-2-fluorobutyl}-N-{[3-(trifluoromethoxy)phenyl]methyl}-1H-1,2,3-triazole-4-carboxamide] | < 100 | < 100
10 | Cc1ccc(CNC(=O)c2cn(CC(F)CCn3ccc(NC(=O)CC4CCSCC4)cc3=O)nn2)cn1 (centres unmarked) [Example 198, 1-(2-fluoro-4-{2-oxo-4-[2-(thian-4-yl)acetamido]-1,2-dihydropyridin-1-yl}butyl)-N-[(6-methylpyridin-3-yl)methyl]-1H-1,2,3-triazole-4-carboxamide] | < 100 | 100 to 500
11 | O=C(CC1CCCCC1)Nc1ccn(CCC(F)Cn2cc(C(=O)NCc3cc(Cl)ccc3F)nn2)c(=O)c1F (centres unmarked) [Example 265, N-[(5-chloro-2-fluorophenyl)methyl]-1-{4-[4-(2-cyclohexylacetamido)-3-fluoro-2-oxo-1,2-dihydropyridin-1-yl]-2-fluorobutyl}-1H-1,2,3-triazole-4-carboxamide] | < 100 | < 100
12 | O=C(Cc1cccc(OC(F)(F)F)c1)Nc1ccc(CCCCn2ccc(NC(=O)CC3CCCCC3)nc2=O)nn1 [Example 108, N-(6-{4-[4-(2-cyclohexylacetamido)-2-oxo-1,2-dihydropyrimidin-1-yl]butyl}pyridazin-3-yl)-2-[3-(trifluoromethoxy)phenyl]acetamide] | < 100 | < 100
13 | CC(C)OC(=O)Nc1ccn(CCCCn2cc(C(=O)NCc3cccc(OC(F)(F)F)c3)nn2)c(=O)c1 [Example 43, propan-2-yl N-(2-oxo-1-{4-[4-({[3-(trifluoromethoxy)phenyl]methyl}carbamoyl)-1H-1,2,3-triazol-1-yl]butyl}-1,2-dihydropyridin-4-yl)carbamate] | < 100 | 100 to 500
14 | CO[C@H](C(=O)Nc1ccn(CCC(F)Cn2cc(C(=O)NCc3cccc(OC(F)(F)F)c3)nn2)c(=O)c1)c1ccccc1 (stereo partly drawn) [Example 184, 1-(2-fluoro-4-{4-[(2S)-2-methoxy-2-phenylacetamido]-2-oxo-1,2-dihydropyridin-1-yl}butyl)-N-{[3-(trifluoromethoxy)phenyl]methyl}-1H-1,2,3-triazole-4-carboxamide] | < 100 | < 100
15 | O=C(CC1CCC1)Nc1ccn(CCC(F)Cn2cc(C(=O)NCc3cc(Cl)ccc3F)nn2)c(=O)c1 (centres unmarked) [Example 214, N-[(5-chloro-2-fluorophenyl)methyl]-1-{4-[4-(2-cyclobutylacetamido)-2-oxo-1,2-dihydropyridin-1-yl]-2-fluorobutyl}-1H-1,2,3-triazole-4-carboxamide] | < 100 | 100 to 500
16 | N#CC1CCN(CC(=O)Nc2ccn(CCC(F)Cn3cc(C(=O)NCc4cccc(OC(F)(F)F)c4)nn3)c(=O)c2)CC1 (centres unmarked) [Example 256, 1-(4-{4-[2-(4-cyanopiperidin-1-yl)acetamido]-2-oxo-1,2-dihydropyridin-1-yl}-2-fluorobutyl)-N-{[3-(trifluoromethoxy)phenyl]methyl}-1H-1,2,3-triazole-4-carboxamide] | < 100 | 500 to 5000
17 | CC(=O)Nc1nnc(CCCCn2ccc(NC(=O)CC3CCCC3)c(F)c2=O)s1 [Example 505, 2-cyclopentyl-N-{1-[4-(5-acetamido-1,3,4-thiadiazol-2-yl)butyl]-3-fluoro-2-oxo-1,2-dihydropyridin-4-yl}acetamide] | < 100 | 500 to 5000
18 | O=C(Cc1ccccc1)Nc1nnc(CCCCn2ccc(NC(=O)[C@@H](O)c3ccccc3)nc2=O)s1 [Example 83, (2S)-2-hydroxy-N-(2-oxo-1-{4-[5-(2-phenylacetamido)-1,3,4-thiadiazol-2-yl]butyl}-1,2-dihydropyrimidin-4-yl)-2-phenylacetamide] | < 100 | > 5000
19 | O=C(Cc1cccc(OC(F)(F)F)c1)Nc1ccc(CCCCn2ccc(NC(=O)OC3CCCCC3)nc2=O)nn1 [Example 103, cyclohexyl N-{2-oxo-1-[4-(6-{2-[3-(trifluoromethoxy)phenyl]acetamido}pyridazin-3-yl)butyl]-1,2-dihydropyrimidin-4-yl}carbamate] | < 100 | < 100
20 | O=C(CN1CCOCC1)Nc1ccn(CCC(F)Cn2cc(C(=O)NCc3cccc(OC(F)(F)F)c3)nn2)c(=O)c1 (centres unmarked) [Example 213, 1-(2-fluoro-4-{4-[2-(morpholin-4-yl)acetamido]-2-oxo-1,2-dihydropyridin-1-yl}butyl)-N-{[3-(trifluoromethoxy)phenyl]methyl}-1H-1,2,3-triazole-4-carboxamide] | 100 to 500 | 500 to 5000
21 | CC(C)(C)OC(=O)c1cn(CC(F)CCn2ccc(CO)cc2=O)nn1 (centres unmarked) [Example 408, tert-butyl 1-{2-fluoro-4-[4-(hydroxymethyl)-2-oxo-1,2-dihydropyridin-1-yl]butyl}-1H-1,2,3-triazole-4-carboxylate] | > 5000 | > 5000
22 | O=C(CC1CCC1)Nc1ccn(CCC(F)Cn2cc(C(=O)NCc3ccc(CF)nc3)nn2)c(=O)c1F (centres unmarked) [Example 374, 1-{4-[4-(2-cyclobutylacetamido)-3-fluoro-2-oxo-1,2-dihydropyridin-1-yl]-2-fluorobutyl}-N-{[6-(fluoromethyl)pyridin-3-yl]methyl}-1H-1,2,3-triazole-4-carboxamide] | < 100 | 100 to 500
